{"source": "ChEMBL document CHEMBL1177668", "about": "“(-)-N-Formylanonaine from Michelia alba as a human tyrosinase inhibitor and antioxidant” (Bioorg Med Chem, 2010)", "key": {"[1]": {"assay": "Antioxidant activity assessed as potassium ferric cyanide ion reducing power at 100 uM after 20 mins", "type": "functional"}, "[2]": {"system": "Radical scavenging activity", "description": "Antioxidant activity assessed as DPPH free radical scavenging activity after 30 mins"}, "[3]": {"assay": "Cytotoxicity against human HEMn-MP assessed as cell viability at 200 uM after 48 hrs by MTT assay"}, "Fibroblast [4]": {"system": "Fibroblast", "assay": "Cytotoxicity against human fibroblasts assessed as cell viability at 10 uM after 48 hrs by MTT assay", "type": "cell-based"}, "[5]": {"biological_target": "T1, Tyrosinase (Homo sapiens) (UniProt P14679)", "T1 sequence (whole entry)": "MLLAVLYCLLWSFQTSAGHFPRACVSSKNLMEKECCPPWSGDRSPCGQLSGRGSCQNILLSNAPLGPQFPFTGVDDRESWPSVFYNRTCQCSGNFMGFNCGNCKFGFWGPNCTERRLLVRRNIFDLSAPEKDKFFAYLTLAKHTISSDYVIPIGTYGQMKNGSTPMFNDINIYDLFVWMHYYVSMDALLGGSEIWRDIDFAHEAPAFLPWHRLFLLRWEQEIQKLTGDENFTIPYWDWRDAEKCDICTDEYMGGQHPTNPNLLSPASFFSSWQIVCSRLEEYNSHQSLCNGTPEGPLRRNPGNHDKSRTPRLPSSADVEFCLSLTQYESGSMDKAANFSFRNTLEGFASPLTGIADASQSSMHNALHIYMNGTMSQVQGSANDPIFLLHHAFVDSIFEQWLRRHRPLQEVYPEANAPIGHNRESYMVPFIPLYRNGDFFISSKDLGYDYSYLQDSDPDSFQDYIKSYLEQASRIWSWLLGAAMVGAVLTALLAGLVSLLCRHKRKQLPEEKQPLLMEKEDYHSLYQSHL", "assay": "Inhibition of tyrosinase in human HEMn-MP assessed as oxidation of L-DOPA to dopaquinone at 100 uM after 2 days by spectrophotometric analysis"}, "Homo sapiens [6]": {"organism": "Homo sapiens", "assay": "Reduction of melanin production in human HEMn-MP at 10 uM after 12 to 60 hrs by phase contrast microscopic analysis", "type": "functional"}, "Homo sapiens [7]": {"organism": "Homo sapiens", "assay": "Reduction of melanin production in human HEMn-MP at 200 uM after 12 to 60 hrs by phase contrast microscopic analysis", "type": "functional"}, "[8]": {"assay": "Cytotoxicity against human HEMn-MP assessed as cell death at 100 uM after 48 hrs by MTT assay"}, "Tyrosinase [9]": {"biological_target": "T2, Tyrosinase (Agaricus bisporus, UniProt O42713)", "T2 sequence (O42713 whole entry)": "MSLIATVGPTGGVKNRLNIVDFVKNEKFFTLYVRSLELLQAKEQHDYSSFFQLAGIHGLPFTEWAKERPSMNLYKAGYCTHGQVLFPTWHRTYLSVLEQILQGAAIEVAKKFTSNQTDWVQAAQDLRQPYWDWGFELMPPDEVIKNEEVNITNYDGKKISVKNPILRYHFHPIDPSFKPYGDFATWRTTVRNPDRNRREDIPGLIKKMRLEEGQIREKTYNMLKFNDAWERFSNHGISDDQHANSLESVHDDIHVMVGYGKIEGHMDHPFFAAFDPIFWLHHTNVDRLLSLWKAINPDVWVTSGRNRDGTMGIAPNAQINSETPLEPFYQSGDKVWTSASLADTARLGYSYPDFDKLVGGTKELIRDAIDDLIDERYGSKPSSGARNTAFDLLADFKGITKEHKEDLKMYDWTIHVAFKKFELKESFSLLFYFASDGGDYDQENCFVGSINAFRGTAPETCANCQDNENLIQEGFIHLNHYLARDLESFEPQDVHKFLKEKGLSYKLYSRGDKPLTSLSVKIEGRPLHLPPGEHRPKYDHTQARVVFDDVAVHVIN", "description": "Inhibition of mushroom tyrosinase after 30 mins by spectrophotometric analysis"}, "[10]": {"assay": "Cytotoxicity against human HEMn-MP assessed as cell viability at 0.01 to 10 uM after 48 hrs by MTT assay", "settings": "HEMn-MP cells, read-out: Activity"}, "[11]": {"assay": "Cytotoxicity against human HEMn-MP assessed as cell death at 10 to 200 uM after 2 to 60 hrs by phase contrast microscopic analysis"}, "[12]": {"assay": "Cytotoxicity against human fibroblasts assessed as cell viability at 100 uM after 48 hrs by MTT assay", "type": "cell-based, Fibroblast", "settings": "read-out: Activity"}, "[13]": {"assay": "Cytotoxicity against human HEMn-MP after 48 hrs by MTT assay", "settings": "HEMn-MP cells"}, "Homo sapiens [14]": {"organism": "Homo sapiens", "assay": "Induction of dendritic to bipolar morphology changes in human HEMn-MP at 100 uM after 48 hrs by phase contrast microscopic analysis", "type": "functional"}, "Tyrosinase [15]": {"biological_target": "T3, Tyrosinase (Homo sapiens, UniProt P14679)", "T3 sequence (P14679 whole entry)": "T1 sequence (whole entry)", "assay": "Inhibition of tyrosinase in human HEMn-MP assessed as reduction of melanin level after 2 days by spectrophotometric analysis"}, "[16]": {"assay": "Cytotoxicity against human keratinocytes assessed as cell viability at 10 uM after 48 hrs by MTT assay", "type": "cell-based", "settings": "keratinocyte"}, "Homo sapiens [17]": {"organism": "Homo sapiens", "assay": "Induction of dendritic to bipolar morphology changes in human HEMn-MP at 10 uM after 12 to 60 hrs by phase contrast microscopic analysis", "type": "functional"}, "Fibroblast [18]": {"system": "Fibroblast", "assay": "Cytotoxicity against human fibroblasts assessed as cell viability at 200 uM after 48 hrs by MTT assay", "type": "cell-based"}, "[19]": {"assay": "Cytotoxicity against human fibroblasts after 48 hrs by MTT assay", "type": "cell-based, Fibroblast"}, "Homo sapiens [20]": {"organism": "Homo sapiens", "assay": "Induction of dendritic to bipolar morphology changes in human HEMn-MP at 200 uM after 12 to 60 hrs by phase contrast microscopic analysis", "type": "functional"}, "[21]": {"assay": "Cytotoxicity against human keratinocytes after 48 hrs by MTT assay", "type": "cell-based, Keratinocyte"}}, "note": "pEC50, pIC50: −log10 of the molar value. Activity calls are given as the source filed them. The rule behind the calls is not given here.", "data": [{"smiles": "COc1ccc(O)c(C(C)(C)C)c1.COc1ccc(O)cc1C(C)(C)C", "values": [{"measurement": "OD", "setting": "[1]", "result": 1.28}]}, {"smiles": "O=C1O[C@H]([C@@H](O)CO)C(O)=C1O", "note": "[ASCORBIC ACID]", "values": [{"measurement": "pIC50", "setting": "[2]", "result": 4.28}]}, {"smiles": "O=CN1CCc2cc3c(c4c2[C@H]1Cc1ccccc1-4)OCO3", "values": [{"measurement": "Activity", "setting": "[3]", "result": "Toxic"}, {"measurement": "Activity", "setting": "Fibroblast [4]", "result": "Non-toxic"}, {"measurement": "pIC50", "setting": "[2]", "result": 3.92}, {"measurement": "Activity", "setting": "[5]", "result": "Active"}, {"measurement": "Activity", "setting": "Homo sapiens [6]", "result": "Active"}, {"measurement": "Activity", "setting": "Homo sapiens [7]", "result": "Active"}, {"measurement": "Activity", "setting": "[8]", "result": "Toxic"}, {"measurement": "pIC50", "setting": "Tyrosinase [9]", "result": 4.13}, {"measurement": "viability at 48 h, 10 µM", "setting": "[10]", "result": 90, "unit": "%"}, {"measurement": "Activity", "setting": "[11]", "result": "Non-toxic"}, {"measurement": "viability at 48 h, 100 µM", "setting": "[12]", "result": 70, "unit": "%"}, {"measurement": "CC50 at 48 h", "setting": "[13]", "result": 735, "unit": "µM"}, {"measurement": "Activity", "setting": "Homo sapiens [14]", "result": "Active"}, {"measurement": "OD", "setting": "[1]", "result": 0.56}, {"measurement": "pEC50", "setting": "Tyrosinase [15]", "result": 4.05}, {"measurement": "Activity", "setting": "[16]", "result": "Non-toxic"}, {"measurement": "Activity", "setting": "Homo sapiens [17]", "result": "Active"}, {"measurement": "Activity", "setting": "Fibroblast [18]", "result": "Non-toxic"}, {"measurement": "CC50 at 48 h", "setting": "[19]", "result": 325, "unit": "µM"}, {"measurement": "Activity", "setting": "Homo sapiens [20]", "result": "Active"}, {"measurement": "CC50 at 48 h", "setting": "[21]", "result": 355, "unit": "µM"}]}]}
